From patent US5639786A (priority 1994, dated 1997)
Converted amounts (≈) assume the structure as drawn.

Assays:
[1] = tested on: Vibrio cholerae neuraminidase; details: Meindl and Tuppy 1969; cited from earlier work
[2] = tested on: influenza A/Singapore/1/57 (H2N2); experiment: microbe, parasite or virus in culture; assay type: cell-based; details: H2N2, MDCK, 72 h, read-out: I50 Plaque Assay (μg/ml) Flu A
[3] = tested on: influenza B/Victoria/102/85; experiment: Inhibition of influenza virus replication in vitro, plaque reduction in MDCK cells (Flu B); assay type: cell-based; details: 72 h, influenza B/Victoria/102/85, MDCK cells, 3 days, read-out: I50 Plaque Assay (μg/ml) Flu B
[4] = target: N2 influenza neuraminidase (Influenza A virus (A/Aichi/2/1968(H3N2)), UniProt Q75VQ4); details: read-out: NA1 (μg/ml), virion X31, MUN substrate, pH 6.5, 15 minutes at 37° C.
Sequence of N2 influenza neuraminidase (Influenza A virus (A/Aichi/2/1968(H3N2)), UniProt Q75VQ4) (Q75VQ4 whole entry, looked up): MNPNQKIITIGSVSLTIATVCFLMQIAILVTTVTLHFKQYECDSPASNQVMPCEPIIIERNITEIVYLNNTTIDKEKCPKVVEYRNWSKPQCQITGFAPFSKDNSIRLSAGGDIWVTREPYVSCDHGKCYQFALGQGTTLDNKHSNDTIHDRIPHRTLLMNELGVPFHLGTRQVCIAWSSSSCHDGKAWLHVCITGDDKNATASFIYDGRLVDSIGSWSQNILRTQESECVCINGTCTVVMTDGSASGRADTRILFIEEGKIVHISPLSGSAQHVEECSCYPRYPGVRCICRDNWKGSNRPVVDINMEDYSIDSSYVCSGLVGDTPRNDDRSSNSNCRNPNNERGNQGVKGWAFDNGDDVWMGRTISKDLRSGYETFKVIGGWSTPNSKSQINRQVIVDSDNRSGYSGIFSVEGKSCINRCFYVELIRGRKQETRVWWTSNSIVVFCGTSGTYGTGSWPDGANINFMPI

[5] = tested on: influenza and parainfluenza viruses; details: Palese et al., Virology 1974; cited from earlier work
[6] = prior art; cited from earlier work

Structure (SMILES) | IC50 [2] | IC50 [3] | IC50 [4] | also measured
CC(=O)N[C@H]1[C@H]([C@H](O)[C@H](O)CO)OC(C(=O)O)C[C@@H]1O (some centres unmarked) [2-deoxy-N-acetylneuraminic acid] |  |  |  | inhibition of Vibrio cholerae neuraminidase [1]: did not inhibit
CC(=O)N[C@H]1[C@H]([C@H](O)[C@H](O)CO)OC(C(=O)O)=C[C@@H]1NC(=N)NN [Example 1, 5-(Acetylamino)-4-[[amino(aminoimino)methyl]amino]-2,6-anhydro-3,4,5-trideoxy-D-glycero-D-galacto-non-2-enonic acid] | 2.9 µg/mL (≈ 8.35 µM) | 3 µg/mL (≈ 8.64 µM) | 3740 nM | 
CC(=O)N[C@H]1[C@H]([C@H](O)[C@H](O)CO)OC(C(=O)O)=C[C@@H]1NC(=N)NO [Example 2, 5-(Acetylamino)-4-[[amino(hydroxyimino)methyl]amino]-2,6-anhydro-3,4,5-trideoxy-D-glycero-D-galacto-non-2-enonic acid] | 0.1 µg/mL (≈ 0.287 µM) | < 0.1 µg/mL | 1720 nM | 
CC(=O)N[C@H]1[C@H]([C@H](O)[C@H](O)CO)OC(C(=O)O)=C[C@@H]1NC(N)=N[N+](=O)[O-] [Example 4, 5-(Acetylamino)-4-[[amino(nitroimino)methyl]amino]-2,6-anhydro-3,4,5-trideoxy-D-glycero-D-galacto-2-enonic acid] |  | 24 µg/mL (≈ 63.6 µM) |  | 
CCOC(=O)N=C(N)N[C@H]1C=C(C(=O)O)O[C@@H]([C@H](O)[C@H](O)CO)[C@@H]1NC(C)=O [Example 5] |  | 0.6 µg/mL (≈ 1.48 µM) |  | 
O=C(O)C1=CC(O)C(NC(=O)C(F)(F)F)C(C(O)C(O)CO)O1 (centres unmarked) [FANA, 2-deoxy-2,3-dehydro-N-trifluoroacetyl-neuraminic acid] |  |  |  | inhibition of multi-cycle replication of influenza and parainfluenza viruses in vitro [5]: inhibits multi-cycle replication; antiviral activity in vivo [6]: inactive in vivo
